Data taken from patent publication US20230346735A1, “Nutritional Composition Comprising Carnitine and Method for Treating or Preventing an Infection in a Mammal” (priority 2020, published 2023).
Entries after “also recorded” stand apart in the source; their conditions may differ. Marks after values point to notes of the source that are not given here.

Experiments:
Furin = Furin mRNA expression in Calu-3, RT real-time PCR; format: cell-based, human; conditions: Calu-3, 50 to 1,000 uM, 24 hr pre-treatment
glutathione peroxidase = assay: Antioxidant capacity: glutathione peroxidase in exercised rats; format: in vivo, rat; conditions: 6 weeks
Method: (§1) Fifty-six (56) Male Wistar rats that were 8-week old were obtained. The rats were reared at the temperature of 22 ± 2° C., the humidity of 55 ± 5%, and with a 12-hrs light-12-hrs dark cycle. All procedures involving rats were conducted in strict compliance with the relevant laws, the Animal Welfare Act, Public Health Services Policy, and guidelines established by the Institutional Animal Care and Use Committee of the Institute of the contracted University which completed the study.
(§2) After a week of the adaptation period, the rats were divided into eight equal groups containing seven rats each. The initial body weights of the rats were similar in all the groups (214.53 grams ± 4.67; P > 0.05).
(§3) Groups 1 and 2 were not subjected to an exercise routine. Groups 3-8 were subjected to an exercise regimen consisting of a week training period with an incremental exercise capacity described below. After the week training period the exercise regimen followed was each rat in Groups 3-8 were subjected to 6 weeks of running at 25 m/min during 45 min […]. […] These correspond to 0, 250, 500, 1000, 2000 and 4000 mg per day for humans, respectively.
(§4) The exercised rats were subjected to treadmill exercise on a motorized rodent treadmill (Commat Limited, Ankara, Turkey). The treadmill contained a stimulus grid at the back end of the treadmill giving an electric shock when the animal placed its paw on the grid. […] To eliminate the diurnal variations, all exercise tests were applied during the same time of the day. The week of training period was provided as pre-training practice for the animals to get familiar with the treadmill equipment and handling. In doing so, the rats in the exercise training groups were accustomed by treadmill exercise over 5 days such that: (i) 1st day, 10 m/min for 10 min, (ii) 2nd day, 20 m/min for 10 min, (iii) 3rd day, 25 m/min for 10 min, (iv) 4th day, 25 m/min for 20 min and (v) 5th day, 25 m/min for 30 min. After the training period, the rats in treadmill exercise groups ran on the treadmill 25 m/min for 45 min/ per day and five days per week for 6 weeks according to the protocol described by Sahin et al. Capsaicinoids Improve the Consequences of Physical Activity. Toxicol Rep. 2018;5:598-607, which is hereby incorporated by reference.
(§5) The exercise regimen was used to induce an inflammation and oxidative stress conditions. […] The results of malondialdehyde, superoxide dismutase, catalase, and glutathione peroxidase for each rat group are shown in TABLE 2.

Calu-3 cells = format: cell-based, human; conditions: Calu-3, 50 uM to 10 mM, 24 h, 48 h or 72 h
Method: Calu-3 cells were maintained in 50% DMEM (Dulbecco’s Modified Eagle Medium) + 50% Ham’s F12 media supplemented with 10% FBS (fetal bovine serum) and 1% penicillin/streptomycin. Vero E6 cells were maintained in DMEM media supplemented with 10% FBS and 1% penicillin/streptomycin.
Calu-3 seeded in a 96-well plate (30,000 cells) were stimulated with 50 uM, 100 uM, 250 uM, 500 uM, 1 mM and 10 mM Carnitine alone. At 24 h, 48 h or 72 h post stimulation, media was removed and cells were subjected to a standard MTT assay.

malondialdehyde = assay: Antioxidant capacity: malondialdehyde in exercised rats; format: in vivo, rat; conditions: 6 weeks
Method: as §1, §2, §3, §4, §5

ACE-1 [1] = assay: Human study, serum ELISA, ACE-1; format: in vivo; conditions: 2 g daily L-carnitine tartrate, 5 weeks, before or after exercise challenge
Method: (§6) A human study was run with a total of 80 healthy male and female subjects ranging from 21 to 65 years of age, who were active (i.e. 30 minutes per day of moderate activity, 3 days per week) are randomized into two groups. […] Seventy-three subjects completed the trial and biomarker data were analyzed from the sera of the 73 completers. Sera were collected for analysis of C-Reactive Protein (CRP), ACE 1, ACE 2, TMPRSS 2, the Tumor Necrosis Factor alpha (TNF-alpha), and Furin at baseline in the beginning of the trial, at week 5 and 48 hr after an exercise challenge as described (Clinicaltrials.gov NCT04420377). The exercise challenge serves as surrogate to the inflammation stimulus.
(§7) To obtain human sera, venous blood was extracted by venipuncture of the antecubital vein using a 21-gauge syringe and collected into a 10 mL EDTA vacutainer tube (BD Vacutainer®, Becton, Dickinson and Company, Franklin Lakes, NJ) by a certified phlebotomist. […] Human ACE-1, ACE-2, TMPRSS2, Furin, CRP and TNF-alpha protein levels were assessed using commercially available ELISA kits, according the manufacturer recommendations, ACE-1 (R&D systems Inc., Minneapolis, MN, USA), ACE-2 (RayBiotech inc., Peachtree Corners, GA), TMPRSS2 (Novus Biologicals, Littleton, CO), CRP (R&D Systems Inc., Minneapolis, MN), TNF-alpha (Novus Biologicals, Littleton, CO), and Furin (Sigma Aldrich, St. Louis, MO). […]

ACE-1 [2] = assay: Rat plasma serum ELISA, ACE-1; format: in vivo; conditions: exercised rats, FIG. 5A
ACE-2 = assay: Rat plasma serum ELISA, ACE-2; format: in vivo; conditions: exercised rats, FIG. 5B
TMPRSS2 = assay: Human study, serum ELISA, TMPRSS2; format: in vivo; conditions: 2 g daily, 5 weeks, 48 hours after exercise challenge, versus placebo
Method: as §6, §7

[3] = Car200: 200 mg/kg oral gavage, no exercise
[4] = Ex+Car25: exercise, 25 mg/kg oral gavage
[5] = Ex+Car50: exercise, 50 mg/kg oral gavage
[6] = Ex+Car100: exercise, 100 mg/kg oral gavage
[7] = Ex+Car200: exercise, 200 mg/kg oral gavage
[8] = Ex+Car400: exercise, 400 mg/kg oral gavage

For C[N+](C)(C)C[C@H](O)CC(=O)[O-] [L-carnitine], the Furin expression levels (Furin) was “did not show any effect”, the GSHPx (glutathione peroxidase; [3]) was 48.74±1.11^d U/mg protein and the GSHPx (glutathione peroxidase; [4]) was 49.75±1.08^d U/mg protein. For the same compound, the GSHPx (glutathione peroxidase; [5]) was 55.91±0.85^c U/mg protein, the GSHPx (glutathione peroxidase; [6]) was 59.57±0.68^bc U/mg protein and the GSHPx (glutathione peroxidase; [7]) was 62.58+1.03^b U/mg protein. The GSHPx (glutathione peroxidase; [8]) was 69.06±1.53^a U/mg protein, the “cytotoxicity (MTT)” value (Calu-3 cells) was “did not show any cytotoxic properties” and the MDA (malondialdehyde; [3]) was 0.693±0.021^b µmol/L. For the same compound, the MDA (malondialdehyde; [4]) was 0.599±0.021^c µmol/L, the MDA (malondialdehyde; [5]) was 0.549±0.014^cd µmol/L and the MDA (malondialdehyde; [6]) was 0.553±0.018^cd µmol/L. For the same compound, the MDA (malondialdehyde; [7]) was 0.489±0.019^de µmol/L, the MDA (malondialdehyde; [8]) was 0.419±0.009^e µmol/L and the ACE-1 serum levels (ACE-1 [1]) was “no significant effect; also recorded: no significant interaction or main effect”. For the same compound, the “serum ACE-1” value (ACE-1 [2]) was “near normal levels”, the “serum ACE-2” value (ACE-2) was “reduction” and the TMPRSS2 serum levels (TMPRSS2) was “significant decrease”.
